Results taken from ChEMBL document CHEMBL3877252, “Fluorescein hydrazones: A series of novel non-intercalative topoisomerase IIα catalytic inhibitors induce G1 arrest and apoptosis in breast and colon cancer cells” (Eur J Med Chem, 2017).
Activity calls are given as the source filed them. The rule behind the calls is not given here.

Tests used:
[1] = biological target: T1, DNA topoisomerase 1 (Homo sapiens) (UniProt P11387); experiment: Inhibition of human topoisomerase-1 assessed as inhibition of relaxation of supercoiled pBR322 plasmid DNA at 100 uM measured after 1 hr by ethidium bromide staining based agarose gel electrophoresis relative to control
T1 sequence (whole entry): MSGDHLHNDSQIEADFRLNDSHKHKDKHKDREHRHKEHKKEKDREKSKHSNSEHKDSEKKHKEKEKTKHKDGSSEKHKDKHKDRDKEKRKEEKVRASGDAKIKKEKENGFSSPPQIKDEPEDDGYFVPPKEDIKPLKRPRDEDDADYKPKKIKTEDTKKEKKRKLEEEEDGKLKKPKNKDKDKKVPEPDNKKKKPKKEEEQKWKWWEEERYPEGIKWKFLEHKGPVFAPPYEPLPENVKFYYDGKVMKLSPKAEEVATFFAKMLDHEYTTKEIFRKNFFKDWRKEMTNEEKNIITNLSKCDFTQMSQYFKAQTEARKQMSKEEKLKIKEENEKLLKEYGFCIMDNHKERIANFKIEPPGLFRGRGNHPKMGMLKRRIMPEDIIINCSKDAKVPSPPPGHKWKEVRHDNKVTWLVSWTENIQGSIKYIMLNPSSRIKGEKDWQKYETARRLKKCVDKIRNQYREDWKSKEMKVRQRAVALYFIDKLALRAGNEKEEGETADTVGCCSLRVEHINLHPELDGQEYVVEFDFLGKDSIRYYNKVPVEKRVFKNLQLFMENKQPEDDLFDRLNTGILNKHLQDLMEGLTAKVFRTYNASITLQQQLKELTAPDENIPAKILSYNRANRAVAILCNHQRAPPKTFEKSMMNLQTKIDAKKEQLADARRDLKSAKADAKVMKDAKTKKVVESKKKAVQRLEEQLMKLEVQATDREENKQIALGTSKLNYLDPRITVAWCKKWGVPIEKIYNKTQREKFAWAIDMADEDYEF

[2] = biological target: DNA topoisomerase 2-alpha (Homo sapiens) (UniProt P11388); experiment: Inhibition of human topoisomerase-2 alpha assessed as inhibition of relaxation of supercoiled pBR322 plasmid DNA at 100 uM measured after 1 hr by ethidium bromide staining based agarose gel electrophoresis relative to control
[3] = biological target: DNA topoisomerase 2-alpha (Homo sapiens) (UniProt P11388); experiment: Inhibition of human topoisomerase-2 alpha assessed as inhibition of relaxation of supercoiled pBR322 plasmid DNA at 20 uM measured after 1 hr by ethidium bromide staining based agarose gel electrophoresis relative to control
[4] = Antiproliferative activity against human T47D cells measured after 72 hrs by CCK8 assay; type: functional, cell-based
[5] = Antiproliferative activity against human DU145 cells measured after 72 hrs by CCK8 assay; type: functional, cell-based; settings: DU-145, 72 h
[6] = Antiproliferative activity against human HCT15 cells measured after 72 hrs by CCK8 assay; type: functional, cell-based; settings: HCT-15, 72 h
[7] = Antiproliferative activity against human MCF7 cells measured after 72 hrs by CCK8 assay; type: functional, cell-based; settings: MCF7, 72 h
[8] = biological target: DNA topoisomerase 2-alpha (Homo sapiens) (UniProt P11388); experiment: Poison activity at topoisomerase-2 alpha in human T47D cells assessed as DNA damage by measuring DNA tail length at 5 uM measured after 24 hrs by alkaline comet assay; type: cell-based
[9] = biological target: DNA topoisomerase 2-alpha (Homo sapiens) (UniProt P11388); experiment: Poison activity at topoisomerase-2 alpha in human T47D cells assessed as DNA damage by measuring DNA tail length at 10 uM measured after 24 hrs by alkaline comet assay; type: cell-based
[10] = Cell cycle arrest in human T47D cells assessed as decrease in cyclin D1 level measured after 24 hrs; type: functional, cell-based
[11] = Cell cycle arrest in human T47D cells assessed as increase in p27kip1 level measured after 24 hrs; type: functional, cell-based
[12] = Cell cycle arrest in human T47D cells assessed as accumulation at G1 phase at 10 uM by DAPI staining based cell analyzer; type: functional; settings: TDE = time-dependent effect
[13] = Cell cycle arrest in human T47D cells assessed as decrease in cyclin D1 level at 10 uM; type: functional, cell-based; settings: TDE = time-dependent effect
[14] = Cell cycle arrest in human T47D cells assessed as increase in p27kip1 level at 10 uM; type: functional, cell-based; settings: TDE = time-dependent effect
T47D [15] = experiment: Induction of apoptosis in human T47D cells assessed as increase in cleaved PARP level measured after 24 hrs by Western blot analysis; type: functional, cell-based
T47D [16] = experiment: Induction of apoptosis in human T47D cells assessed as increase in bax level measured after 24 hrs by Western blot analysis; type: functional, cell-based
T47D [17] = experiment: Induction of apoptosis in human T47D cells assessed as decrease in bcl-2 level measured after 24 hrs by Western blot analysis; type: functional, cell-based
[18] = biological target: DNA topoisomerase 2-alpha (Homo sapiens) (UniProt P11388); experiment: Inhibition of topoisomerase-2 alpha catalytic activity in human T47D cells assessed as appearance of free protein band at 50 uM measured after 2 hrs by Western blot analysis; type: cell-based
[19] = Cell cycle arrest in human T47D cells assessed as accumulation at G1 phase at 1 uM after 24 hrs by DAPI staining-based cell analyzer (reference value: 51%); type: functional
[20] = Cell cycle arrest in human T47D cells assessed as accumulation at G1 phase at 3 uM after 24 hrs by DAPI staining-based cell analyzer (reference value: 51%); type: functional
[21] = Cell cycle arrest in human T47D cells assessed as accumulation at G1 phase at 10 uM after 24 hrs by DAPI staining-based cell analyzer (reference value: 51%); type: functional
[22] = Cell cycle arrest in human T47D cells assessed as accumulation at S phase at 1 uM after 24 hrs by DAPI staining-based cell analyzer (reference value: 26%); type: functional
[23] = Cell cycle arrest in human T47D cells assessed as accumulation at S phase at 3 uM after 24 hrs by DAPI staining-based cell analyzer (reference value: 26%); type: functional
[24] = Cell cycle arrest in human T47D cells assessed as accumulation at S phase at 10 uM after 24 hrs by DAPI staining-based cell analyzer (reference value: 26%); type: functional
[25] = Cell cycle arrest in human T47D cells assessed as accumulation at G2/M phase at 1 uM after 24 hrs by DAPI staining-based cell analyzer (reference value: 15%); type: functional
[26] = Cell cycle arrest in human T47D cells assessed as accumulation at G2/M phase at 3 uM after 24 hrs by DAPI staining-based cell analyzer (reference value: 15%); type: functional
[27] = Cell cycle arrest in human T47D cells assessed as accumulation at G2/M phase at 10 uM after 24 hrs by DAPI staining-based cell analyzer (reference value: 15%); type: functional
[28] = Cell cycle arrest in human T47D cells assessed as accumulation at G1 phase at 10 uM after 5 hrs by DAPI staining-based cell analyzer (reference value: 47 to 50%); type: functional
[29] = Cell cycle arrest in human T47D cells assessed as accumulation at G1 phase at 10 uM after 10 hrs by DAPI staining-based cell analyzer (reference value: 47 to 50%); type: functional
[30] = Cell cycle arrest in human T47D cells assessed as accumulation at G1 phase at 10 uM after 15 hrs by DAPI staining-based cell analyzer (reference value: 47 to 50%); type: functional
[31] = Cell cycle arrest in human T47D cells assessed as accumulation at G1 phase at 10 uM after 20 hrs by DAPI staining-based cell analyzer (reference value: 47 to 50%); type: functional
[32] = Cell cycle arrest in human T47D cells assessed as accumulation at S phase at 10 uM after 5 hrs by DAPI staining-based cell analyzer (reference value: 22%); type: functional
[33] = Cell cycle arrest in human T47D cells assessed as accumulation at S phase at 10 uM after 10 hrs by DAPI staining-based cell analyzer (reference value: 22%); type: functional
[34] = Cell cycle arrest in human T47D cells assessed as accumulation at S phase at 10 uM after 15 hrs by DAPI staining-based cell analyzer (reference value: 22%); type: functional
[35] = Cell cycle arrest in human T47D cells assessed as accumulation at S phase at 10 uM after 20 hrs by DAPI staining-based cell analyzer (reference value: 22%); type: functional
[36] = Cell cycle arrest in human T47D cells assessed as accumulation at G2/M phase at 10 uM after 5 hrs by DAPI staining-based cell analyzer (reference value: 18 to 20%); type: functional
[37] = Cell cycle arrest in human T47D cells assessed as accumulation at G2/M phase at 10 uM after 10 hrs by DAPI staining-based cell analyzer (reference value: 18 to 20%); type: functional
[38] = Cell cycle arrest in human T47D cells assessed as accumulation at G2/M phase at 10 uM after 15 hrs by DAPI staining-based cell analyzer (reference value: 18 to 20%); type: functional
[39] = Cell cycle arrest in human T47D cells assessed as accumulation at G2/M phase at 10 uM after 20 hrs by DAPI staining-based cell analyzer (reference value: 18 to 20%); type: functional
Bos taurus = organism: Bos taurus; experiment: Displacement of ethidium bromide from calf thymus DNA measured after 30 mins by fluorescence quenching assay
[40] = biological target: T1, DNA topoisomerase 1 (Homo sapiens); experiment: Inhibition of human topoisomerase-1 assessed as inhibition of relaxation of supercoiled pBR322 plasmid DNA at 20 uM measured after 1 hr by ethidium bromide staining based agarose gel electrophoresis relative to control

Chain of DNA topoisomerase 2-alpha (Homo sapiens) (P11388 whole entry): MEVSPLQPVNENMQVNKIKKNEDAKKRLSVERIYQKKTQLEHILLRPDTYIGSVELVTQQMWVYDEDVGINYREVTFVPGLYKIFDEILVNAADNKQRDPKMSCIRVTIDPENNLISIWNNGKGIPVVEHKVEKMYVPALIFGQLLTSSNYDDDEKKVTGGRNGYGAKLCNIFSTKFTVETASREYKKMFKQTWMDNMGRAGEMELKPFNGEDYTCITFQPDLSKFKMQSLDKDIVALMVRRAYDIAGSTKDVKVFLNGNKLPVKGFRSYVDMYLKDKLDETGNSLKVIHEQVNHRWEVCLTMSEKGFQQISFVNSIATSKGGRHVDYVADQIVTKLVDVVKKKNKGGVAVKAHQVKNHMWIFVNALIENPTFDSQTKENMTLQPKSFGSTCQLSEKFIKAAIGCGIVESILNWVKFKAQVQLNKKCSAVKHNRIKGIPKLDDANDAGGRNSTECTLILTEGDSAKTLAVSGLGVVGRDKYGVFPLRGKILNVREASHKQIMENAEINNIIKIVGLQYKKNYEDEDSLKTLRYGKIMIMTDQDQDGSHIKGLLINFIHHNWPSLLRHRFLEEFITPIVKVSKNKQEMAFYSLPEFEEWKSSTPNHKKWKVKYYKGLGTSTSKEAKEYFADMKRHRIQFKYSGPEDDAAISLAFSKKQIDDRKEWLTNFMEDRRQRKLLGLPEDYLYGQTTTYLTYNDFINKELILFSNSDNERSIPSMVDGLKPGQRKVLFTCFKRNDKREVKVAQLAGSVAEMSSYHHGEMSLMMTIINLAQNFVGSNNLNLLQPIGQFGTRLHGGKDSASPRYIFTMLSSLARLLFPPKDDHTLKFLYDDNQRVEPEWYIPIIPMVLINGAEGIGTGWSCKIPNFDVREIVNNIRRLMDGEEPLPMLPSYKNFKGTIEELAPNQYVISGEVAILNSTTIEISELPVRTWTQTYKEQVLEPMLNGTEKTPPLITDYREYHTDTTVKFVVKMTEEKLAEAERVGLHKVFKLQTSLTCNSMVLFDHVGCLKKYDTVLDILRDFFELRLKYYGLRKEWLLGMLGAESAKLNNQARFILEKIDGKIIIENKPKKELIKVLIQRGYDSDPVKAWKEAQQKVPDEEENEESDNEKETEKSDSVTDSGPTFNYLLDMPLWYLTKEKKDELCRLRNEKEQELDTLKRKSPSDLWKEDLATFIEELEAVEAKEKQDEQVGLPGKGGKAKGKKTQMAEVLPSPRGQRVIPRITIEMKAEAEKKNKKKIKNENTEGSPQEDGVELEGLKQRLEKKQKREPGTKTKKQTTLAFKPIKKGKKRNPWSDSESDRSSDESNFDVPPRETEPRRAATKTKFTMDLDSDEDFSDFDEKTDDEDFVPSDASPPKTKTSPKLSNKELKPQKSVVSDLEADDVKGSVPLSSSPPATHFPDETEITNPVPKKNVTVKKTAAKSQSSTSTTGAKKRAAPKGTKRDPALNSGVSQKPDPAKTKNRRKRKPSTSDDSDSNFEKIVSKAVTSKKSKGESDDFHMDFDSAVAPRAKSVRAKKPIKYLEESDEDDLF

CCOc1ccc2c(c1)Oc1cc(O)ccc1C21c2ccccc2C(=O)N1/N=C/c1cccc(O)c1 (stereo not given)
inhibition [1]: 0%
inhibition [2]: 89.3%
inhibition [3]: 2.6%
IC50 [4]: 350 nM
IC50 [5]: 40 nM
IC50 [6]: 830 nM
IC50 [7]: 2230 nM
Activity [8]: 9.55 pixel
Activity [9]: 11.5 pixel
Activity [10]: Dose-dependent effect
Activity [11]: Dose-dependent effect
Activity [12]: Tde
Activity [13]: Tde
Activity [14]: Tde
Activity (T47D [15]): Dose-dependent effect
Activity (T47D [16]): Dose-dependent effect
Activity (T47D [17]): Dose-dependent effect
inhibition [18]: Active
Activity [19]: 56%
Activity [20]: 57%
Activity [21]: 64%
Activity [22]: 24%
Activity [23]: 22%
Activity [24]: 20%
Activity [25]: 13%
Activity [26]: 12%
Activity [27]: 9%
Activity [28]: 59%
Activity [29]: 60%
Activity [30]: 61%
Activity [31]: 65%
Activity [32]: 21%
Activity [33]: 21%
Activity [34]: 21%
Activity [35]: 15%
Activity [36]: 12%
Activity [37]: 12%
Activity [38]: 12%
Activity [39]: 12%

COc1cc(NS(C)(=O)=O)ccc1Nc1c2ccccc2nc2ccccc12
inhibition (Bos taurus): Dose-dependent effect

CCOc1ccc2c(c1)Oc1cc(O)ccc1C21c2ccccc2C(=O)N1/N=C/c1ccccc1O (stereo not given)
inhibition [1]: 39.5%
inhibition [40]: 28.1%
inhibition [2]: 78.7%
inhibition [3]: 1.9%
IC50 [4]: 430 nM
IC50 [5]: 550 nM
IC50 [6]: 1840 nM
IC50 [7]: 4740 nM
Activity [8]: 7.76 pixel
Activity [9]: 8.56 pixel
Activity [10]: Dose-dependent effect
Activity [11]: Dose-dependent effect
Activity [12]: Tde
Activity [13]: Tde
Activity [14]: Tde
Activity (T47D [15]): Dose-dependent effect
Activity (T47D [16]): Dose-dependent effect
Activity (T47D [17]): Dose-dependent effect
inhibition [18]: Active
Activity [19]: 54%
Activity [20]: 59%
Activity [21]: 60%
Activity [22]: 28%
Activity [23]: 25%
Activity [24]: 22%
Activity [25]: 14%
Activity [26]: 11%
Activity [27]: 11%
Activity [28]: 51%
Activity [29]: 55%
Activity [30]: 57%
Activity [31]: 62%
Activity [32]: 21%
Activity [33]: 22%
Activity [34]: 21%
Activity [35]: 20%
Activity [36]: 14%
Activity [37]: 13%
Activity [38]: 10%
Activity [39]: 10%
